# Reference: patent US20250049027A1, “PLANT PATHOGEN COMPOSITION” (Robjulz Pty. Ltd., priority 2021, published 2025)
# Legend:
# [1] = system: Fusarium oxysporum f. sp. cubense TR4 (FocTR4); assay: In vitro poison agar test, mycelial growth on potato dextrose agar; assay type: cell-based; conditions: concluded from the in vitro data; ppm of BAC
# Experimental: In vitro tests were performed against Fusarium oxysporum f. sp. cubense TR4 (FocTR4), the fungal pathogen responsible for Panama wilt of banana, using a poison agar method as discussed below.
# (§1) Potato dextrose agar (PDA, 39 g) medium (Difco™) was added to distilled or deionized water (1 L) in accordance with the manufacturer's instruction before autoclaving at 121° C. for 20 minutes and cooling to 50-55° C. in a water bath. To the resulting mixture was added the stock solution of Example 3, in accordance with the amounts in Table 5, or sterile distilled water (control sample). Five replications for each treatment were prepared, and the experiment was carried out using a completely randomized design (CRD).
# Mycelial growth in each treatment was recorded within seven days after incubation at room temperature with natural dark/light cycle in reference to the growth of the control. Percent inhibition of diameter growth (% PIDG) was calculated as described above. Analyses of statistical data were carried out using the standard analysis of variance (ANOVA) procedure using SAS software (version 9.2).
# [2] = system: Fusarium oxysporum f. sp. cubense TR4 (FocTR4); assay: In vivo preventative testing using banana plants, soil application before inoculation; conditions: concluded from the banana plant data; ppm of BAC
# Experimental: The efficacy of a fungicidal composition of the present invention was tested against Fusarium oxysporum f. sp. cubense TR4 (FocTR4), the fungal pathogen responsible for Panama wilt of banana, for use as a preventative.
# Banana seedlings (cv. Berangan, 2-month-old) were obtained from Malaysian Agricultural Research and Development Institute (MARDI). Soil was prepared in polybags and sterilized using a large capacity autoclave at the Institute of Plantation Sciences (IKP). Seedlings were allowed to acclimatize in a greenhouse for approximately two months, reaching a height of about 50 cm, before being inoculated with FocTR4. Plants were watered with a dripping system, and fertilized with NPK.
# The seedlings were used in a randomized complete block design (RCBD) with seven treatments: healthy control, disease control, four concentrations (100 ppm, 300 ppm, 500 ppm and 700 ppm), and a commercial fungicide. For the four concentrations tested, compositions were either a test solution as described in Example 2, or a polymer control (as described in Example 1 with acrylamide polymer omitted). […]
# Four replications were used for each treatment, with four plants per replicate. […] Seedlings were assessed after inoculation to measure disease incidence (DI) and disease severity (DSI). […] DSI was measured by estimating the proportion of plant surface area was infected. […]
# P. palmivora [3] = assay: In vivo testing using cocoa pods, pre-treated then inoculated; parameters: species or system Phytophthora palmivora
# Experimental: The efficacy of a fungicidal composition of the present invention was tested against P. palmivora. Healthy, green cocoa pods were picked, prior to artificial inoculation with Phytophthora isolate M5. One highly virulent P. palmivora isolate (MI 5 from Sabah) with 5 replicates (pods) were used as the control.
# Each pod was washed carefully three times with sterile distilled water, the surface was disinfected for 2 minutes in 75% ethanol, and pods were air-dried at room temperature (25±2° C.). Different concentrations of the composition of the present invention (0-540 ppm) were prepared as for Examples 3 and 4, using the composition described in Example 1 which contained a polymeric film-forming agent, and spread on the pod surface to cover the whole pod. Cocoa pods with sterile distilled water were included as a negative control. After spreading, the pre-treated pods were inoculated with a 12 mm plug of 5-day old culture of P. palmivora grown on CMA plates by placing over the intact skin at the centre of each cocoa pod (see FIGS. 3A-I). The resulting pods were kept in moist plastic trays, covered with black polythene sheets to maintain moisture level, and incubated at 25±2° C. in the dark for seven days.
# P. palmivora [4] = assay: In vivo testing using durian fruit, pre-treated then inoculated; parameters: species or system Phytophthora palmivora; conditions: concluded from the durian fruit data; ppm of BAC
# Experimental: Healthy durian fruits were harvested carefully from a durian plantation, for artificial inoculation with Phytophthora isolate DB4. Untreated durian fruits with five replicates were used as the control. Fungicidal compositions were prepared, as for Example 5, then applied to the fruit surface. Durian fruits with sterile distilled water were included as a negative control. The pre-treated fruits were inoculated with a 12 mm plug of a 5-day old culture of P. palmivora grown on CMA plates by placing over the intact skin at the centre of each fruit. The resulting durian fruits were kept in moist plastic trays, covered with black polythene sheets to maintain moisture level, and incubated at 25±2° C. in the dark for seven days. Measurement of lesions were made at seven days after inoculation.
# Phytophthora palmivora = assay: In vitro poison agar test, mycelial growth on corn meal agar; assay type: cell-based; conditions: concluded from the in vitro data; ppm of BAC
# Experimental: In vitro tests were performed against Phytophthora palmivora, the pathogen responsible for pod rot of cocoa, stem canker of durian and rubber, and foot rot of pepper, using a poison agar method as discussed below.
# A stock solution was prepared with (a) BAC (50% w/v in water, 180 mL), (b) STPP (25 g), and (c) BL8 (120 mL), with enough water to provide a total volume of 1 L.
# as §1, with “Corn meal” for “Potato dextrose”, “(CMA, 17” for “(PDA, 39”, “(Oxoid™, Thermo Scientific)” for “(Difco™)”, “described above,” for “of Example 3,”, “3,” for “5,”
# Mycelial growth in each treatment was recorded within seven days after incubation at room temperature with natural dark/light cycle in reference to the growth of the control. Percent inhibition of diameter growth (% PIDG) was calculated as follows:
# [formula] • where: dc=average diameter of fungal colony in the control plate, and • dt=average diameter of fungal colony in the treatment plate. […]
substance,measurement,setting,value
benzalkonium chloride [BAC],effective concentration for controlling a fungus such as Fusarium,[1],500-2000 ppm
same,"effective concentration for controlling a fungus such as Fusarium, when applied to the soil",[2],500-2000 ppm
same,pods showing fungal infection around plug,"P. palmivora [3]; cocoa pods treated with 18 ppm BAC, FIG. 3B",four out of five pods show fungal infection around plug
same,pods showing fungal infection around plug,"P. palmivora [3]; cocoa pods treated with 36 ppm BAC, FIG. 3C",four out of five pods show fungal infection around plug
same,pods showing fungal infection around plug,"P. palmivora [3]; cocoa pods treated with 54 ppm BAC, FIG. 3D",three out of five pods show fungal infection around plug
same,pods showing fungal infection around plug,"P. palmivora [3]; cocoa pods treated with 72 ppm BAC, FIG. 3E",two out of five pods show fungal infection around plug
same,pods showing fungal infection around plug,"P. palmivora [3]; cocoa pods treated with 90, 180, 360 and 540 ppm BAC, FIG. 3F-I",no fungal infection around plug
same,effective concentration for controlling an oomycete such as P. palmivora when applied to the fruit,"P. palmivora [3]; concluded from the cocoa pod data, ppm of BAC",15-750 ppm
same,effective concentration for controlling an oomycete such as P. palmivora when applied to the fruit,P. palmivora [4],15-750 ppm
same,effective concentration for controlling an oomycete such as Phytophthora,Phytophthora palmivora,15-750 ppm
